Measured values from patent publication US20140243324A1, “USE OF HEMATOPOIETIC GROWTH FACTOR MIMETICS” (LIGAND PHARMACEUTICALS INCORPORATED, priority 2010, published 2014).

How the values were obtained:
Erythroid cells = experiment: EPO-dependent cell viability assay; format: cell-based; settings: for maximum efficacy relative to the efficacy of EPO (cell viability): erythroid cells, FIG. 3; for erythropoietic efficacy compared with EPO at typical serum concentrations: typical EPO in blood approx. 0.01 U/ml
Protocol: Erythroid cells were treated with various concentrations of recombinant human EPO, Compound 101, or Compound 102, and the viability of treated cells was measured. The maximum efficacies of Compounds 101 and 102 was approximately 40% of the efficacy of EPO, corresponding to EPO EC40 of approximately 0.02 U/ml (FIG. 3). The typical EPO concentration in blood is approximately 0.01 U/ml, with a range from about 0.006 U/ml to about 0.032 U/ml.

[1] = system: CD34+ human bone marrow cells (BM-HCs); experiment: Relative differentiation of human bone marrow cells (CD235a expression); format: cell-based; settings: 10 nm Compound 101; FIG. 4
Protocol: CD34+ human bone marrow cells (BM-HCs) were treated with various concentrations of recombinant human EPO, Compound 101, Compound 102, or control. The number of cells expressing the erythrocyte-specific marker, CD235a (glycophorin A), was measured. […] The level of expression of CD235a in cells treated with 10 nm Compound 101 was approximately 37% of the level of expression of CD235a in cells treated with 2.0 U/ml EPO.

[2] = system: CD34+ human bone marrow cells; experiment: BFU-E colony formation in human CD34+ bone marrow cells; format: cell-based; settings: Compound 101 10 nM
Protocol: CD34+ human bone marrow cells were incubated with recombinant human EPO, Compound 101, or control. Compound 101 stimulated the formation of BFU-E colonies with partial efficacy (31%) when incubated with BM-HCs.

PI3K [3] = experiment: Phosphorylation of PI3K in UT7 cells; format: cell-based, human; settings: 60 minutes, FIG. 5B
Protocol: (§1) UT7 cells were treated with 10 nM Compound 102, 100 nM Compound 102, or control (vehicle). Phosphorylation of the EPO receptor was measured after 15 minutes or 45 minutes of treatment with Compound 101 or control (vehicle) (FIG. 5A). Phosphorylation of PI3K was measured after 60 minutes of treatment with EPO, Compound 101, or control (vehicle) (FIG. 5B). Phosphorylation of GATA1 was measured after 60 minutes treatment with Compound 102, EPO or control (vehicle) (FIG. 5C).

GATA1 [4] = experiment: Electrophoretic mobility shift assay for GATA1 in UT7 cells; format: cell-based, human; settings: 30 minute treatment
Protocol: Binding of GATA1 to DNA was measured in an electrophoretic mobility shift assay for GATA1 in UT7 cells after 30 minute treatments with 1 U/ml EPO, 30 nM Compound 102, or 100 nM Compound 101.

UT7 cells = experiment: Relative cell viability of UT7 cells transfected with EPO receptor- and GATA1-specific siRNAs; format: cell-based, human; settings: 30 nM Compound 101, FIG. 7
Protocol: UT7 cells transfected with EPO receptor- and GATA1-specific siRNAs were treated with 1 U/ml EPO, 30 nM Compound 101, or control (vehicle). The relative cell viability of the cells was measured (FIG. 7).

EPO receptor = target: T1, EPO receptor (Homo sapiens, UniProt P19235); experiment: Phosphorylation of the EPO receptor in UT7 cells; format: cell-based; settings: 10 nM or 100 nM, 15 or 45 minutes, FIG. 5A
T1 construct: endogenous in cells; host or cells: UT7 cells
T1 sequence (P19235 25-508): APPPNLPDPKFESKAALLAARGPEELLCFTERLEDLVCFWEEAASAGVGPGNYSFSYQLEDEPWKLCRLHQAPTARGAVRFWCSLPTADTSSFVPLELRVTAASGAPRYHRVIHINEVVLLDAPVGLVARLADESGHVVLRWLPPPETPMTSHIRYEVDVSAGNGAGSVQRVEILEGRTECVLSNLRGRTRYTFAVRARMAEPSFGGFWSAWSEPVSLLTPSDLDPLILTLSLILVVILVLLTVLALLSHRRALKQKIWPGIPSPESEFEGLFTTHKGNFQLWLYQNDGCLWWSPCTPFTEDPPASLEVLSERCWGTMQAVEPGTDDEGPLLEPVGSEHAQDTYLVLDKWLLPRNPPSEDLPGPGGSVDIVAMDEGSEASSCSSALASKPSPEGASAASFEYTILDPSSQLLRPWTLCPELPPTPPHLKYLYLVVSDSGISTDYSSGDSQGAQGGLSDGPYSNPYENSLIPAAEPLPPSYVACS
T1 sequence (O60674 whole entry partner): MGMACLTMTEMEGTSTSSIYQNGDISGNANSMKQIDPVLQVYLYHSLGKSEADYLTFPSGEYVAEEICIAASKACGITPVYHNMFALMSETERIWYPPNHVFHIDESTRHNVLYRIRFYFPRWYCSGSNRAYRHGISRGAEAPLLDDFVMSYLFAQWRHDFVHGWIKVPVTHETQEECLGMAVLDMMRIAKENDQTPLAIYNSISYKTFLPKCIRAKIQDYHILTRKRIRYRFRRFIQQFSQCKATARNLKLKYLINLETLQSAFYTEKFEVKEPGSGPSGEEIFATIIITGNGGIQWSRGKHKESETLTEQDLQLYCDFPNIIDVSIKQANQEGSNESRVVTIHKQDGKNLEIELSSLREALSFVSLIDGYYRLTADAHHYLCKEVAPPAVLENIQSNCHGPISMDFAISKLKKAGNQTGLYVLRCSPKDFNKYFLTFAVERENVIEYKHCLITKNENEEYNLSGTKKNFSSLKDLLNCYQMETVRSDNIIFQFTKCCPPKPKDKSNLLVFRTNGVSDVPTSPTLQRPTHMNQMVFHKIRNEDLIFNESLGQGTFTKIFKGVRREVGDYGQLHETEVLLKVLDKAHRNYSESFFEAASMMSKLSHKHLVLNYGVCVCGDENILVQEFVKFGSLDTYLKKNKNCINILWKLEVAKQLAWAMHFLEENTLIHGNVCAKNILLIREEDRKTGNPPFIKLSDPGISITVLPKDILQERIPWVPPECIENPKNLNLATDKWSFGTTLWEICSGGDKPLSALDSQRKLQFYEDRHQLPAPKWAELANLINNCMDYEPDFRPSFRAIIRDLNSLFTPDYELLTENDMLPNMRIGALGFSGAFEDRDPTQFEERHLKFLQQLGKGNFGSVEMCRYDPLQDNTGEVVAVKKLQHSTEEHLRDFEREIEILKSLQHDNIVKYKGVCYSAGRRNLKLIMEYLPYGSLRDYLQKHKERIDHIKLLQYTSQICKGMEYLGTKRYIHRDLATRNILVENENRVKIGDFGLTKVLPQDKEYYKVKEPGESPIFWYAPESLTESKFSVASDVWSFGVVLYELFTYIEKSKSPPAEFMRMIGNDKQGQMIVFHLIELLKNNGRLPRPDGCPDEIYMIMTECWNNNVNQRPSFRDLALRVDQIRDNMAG
Protocol: as §1

GATA1 [5] = experiment: Phosphorylation of GATA1 in UT7 cells; format: cell-based, human; settings: 60 minutes, FIG. 5C
Protocol: as §1

[6] = system: CD34+ human bone marrow hematopoietic cells (BM-HCs); experiment: Percentage of CD235a (glycophorin A) positive cells in CD34+ BM-HCs; format: cell-based
[7] = system: EPO responsive genes (hemoglobin α, EPO receptor, BCL2L1); experiment: Expression of EPO responsive genes in CD34 positive BM-HCs; format: cell-based, human
BM-HCs [8] = experiment: BFU-E colony formation in BM-HCs, 14 days; format: cell-based, human; settings: incubated with BM-HCs for 14 days
Protocol: (§2) In addition, Compound 103 stimulated the formation of BFU-E colonies with partial efficacy (30%) when incubated with BM-HCs for 14 days. The effect of Compound 103 on BM-HCs was specific for the erythroid lineage.

BM-HCs [9] = experiment: Lineage specificity in BM-HCs (CD41, CD15 markers); format: cell-based, human
Protocol: as §2

UT7EPO cells = experiment: Apoptosis induced by EPO withdrawal / cell survival in UT7EPO cells; format: cell-based, human
Protocol: (§3) Using human cell lines, the action of Compound 103 was determined to be dependent on the EPO receptor and involves the selective activation of the PI3K/AKT-GATA1 signaling pathway.

BCL2L1 [10] = experiment: BCL2L1 expression in UT7EPO cells; format: cell-based, human
Protocol: as §3

EPOR = target: T2, EPOR (Homo sapiens, UniProt P19235); experiment: Phosphorylation of EPOR in UT7EPO cells; format: cell-based
T2 construct: In the human EPO-dependent cell line UT7EPO; endogenous in cells; host or cells: UT7EPO cells
T2 sequence (P19235 25-508): as the sequence (P19235 25-508) above
T2 sequence (O60674 whole entry partner): as the sequence (O60674 whole entry partner) above
Protocol: as §3

PI3K [11] = experiment: Phosphorylation of PI3K in UT7EPO cells; format: cell-based, human
Protocol: as §3

GATA1 [12] = experiment: Phosphorylation of GATA1 in UT7EPO cells; format: cell-based, human
Protocol: as §3

STAT5 [13] = experiment: Phosphorylation of STAT5 in UT7EPO cells; format: cell-based, human
Protocol: as §3

ERK/MAPK = experiment: Phosphorylation of ERK/MAPK in UT7EPO cells; format: cell-based, human
Protocol: as §3

GATA1 [14] = experiment: Binding of GATA1 to DNA in UT7EPO cells; format: cell-based, human
Protocol: as §3

STAT5 [15] = experiment: STAT5 DNA binding in UT7EPO cells; format: cell-based, human
Protocol: as §3

Mo7e cells = experiment: Apoptosis in Mo7e cells that lack EPO receptor; format: cell-based; settings: GM-CSF- and TPO-responsive human leukemia Mo7e cells that lack EPO receptor
BCL2L1 [16] = experiment: BCL2L1 expression in Mo7e cells that lack EPO receptor; format: cell-based; settings: GM-CSF- and TPO-responsive human leukemia Mo7e cells that lack EPO receptor

In the case of CN(C)c1ccc(C(=O)N/N=C/c2ccc(Oc3ccc(/C=N/NC(=O)c4ccc(N(C)C)cc4)cc3)cc2)cc1 [Compound 101, (N′,N′″E,N′,N′″E)-N′,N′″-((Oxybis(4,1-phenylene))bis(methanylylidene))bis(4-(dimethylamino)benzohydrazide)], the “maximum efficacy relative to the efficacy of EPO (cell viability)” value (Erythroid cells) is reported as “approximately 40%”, the “erythropoietic efficacy compared with EPO at typical serum concentrations” value (Erythroid cells) is reported as “greater than would be predicted for EPO at typical serum concentrations” and the “level of expression of CD235a compared with cells treated with 0.01 U/ml EPO” value [1] is reported as “above the level of expression observed in cells treated with 0.01 U/ml EPO”. For the same compound, the “level of expression of CD235a relative to cells treated with 2.0 U/ml EPO” value [1] was “approximately 37%”, the “% BFU-E relative to 3 U/ml EPO” value [2] was 31% and the BFU-Es/Dish [2] was 11. The “phosphorylation of PI3K” value (PI3K [3]) was “stimulated phosphorylation”, the “binding of GATA1 to DNA (EMSA)” value (GATA1 [4]; 100 nM Compound 101) was “induce binding of GATA1 to DNA” and the “effect of EPO receptor- and GATA1-specific siRNAs on compound activity (relative cell viability)” value (UT7 cells) was “blocks activity”.

COc1cccc(C(=O)N/N=C/c2ccc(Oc3ccc(/C=N/NC(=O)c4cccc(OC)c4)cc3)cc2)c1 [Compound 102, (N′,N′″E,N′,N′″E)-N′,N′″-((oxybis(4,1-phenylene))bis(methanylylidene))bis(3-methoxybenzohydrazide)] was tested, and the “maximum efficacy relative to the efficacy of EPO (cell viability)” value (Erythroid cells) was “approximately 40%”, the “erythropoietic efficacy compared with EPO at typical serum concentrations” value (Erythroid cells) was “greater than would be predicted for EPO at typical serum concentrations” and the “phosphorylation of the EPO receptor” value (EPO receptor) was “stimulated phosphorylation”. The “phosphorylation of GATA1” value (GATA1 [5]) was “stimulated phosphorylation” and the “binding of GATA1 to DNA (EMSA)” value (GATA1 [4]; 30 nM Compound 102) was “induce binding of GATA1 to DNA”.

CN(C)c1ccc(C(=O)N/N=C/c2cccc(/C=N/NC(=O)c3ccc(N(C)C)cc3)c2)cc1 [Compound 103, (N′,N′″E,N′,N′″E)-N′,N′″-(1,3-phenylenebis(methanylylidene))bis(4-(dimethylamino)benzohydrazide)] was tested, and the “erythropoietic effect in combination with EPO” value ([6]; BM-HCs) was “additive to the effect of EPO”, the EC50 ([6]; Homo sapiens, CD34+ BM-HCs, read-out: EC50, increase of percentage of cells positive for CD235a) was 2 nM and the Emax ([6]; Homo sapiens, CD34+ BM-HCs, read-out: efficacy relative to the maximal effect of EPO (3 U/ml), CD235a positive cells) was 42%. For the same compound, the “efficacy compared with the normal serum EPO concentration, CD235a positive cells” value ([6]; normal serum EPO (−0.01 U/ml)) was “greater than the efficacy of the normal serum EPO concentration”, the “expression of EPO responsive genes including hemoglobin α, EPO receptor and BCL2L1” value [7] was “stimulated the expression” and the “formation of BFU-E colonies, partial efficacy” value (BM-HCs [8]) was 30%. The “percentage of BM-HCs positive for the granulocyte marker CD15” value (BM-HCs [9]) was “did not increase”, the “percentage of BM-HCs positive for the megakaryocyte marker CD41” value (BM-HCs [9]) was “did not increase” and the EC50 (UT7EPO cells; Homo sapiens, UT-7/Epo, UT7EPO cells, read-out: EC50, block of apoptosis induced by EPO withdrawal) was 10 nM. For the same compound, the “activity after transfection with EPO receptor- and GATA1-specific siRNAs” value (UT7EPO cells; UT7EPO cells) was “blocked the activity”, the “effect on cell survival in presence of the PI3K inhibitor LY294002” value (UT7EPO cells; UT7EPO cells incubated with LY294002) was “blocked the effect” and the “stimulation of the expression of BCL2L1, efficacy” value (BCL2L1 [10]) was “efficacy comparable to EPO”. The “phosphorylation of EPOR” value (EPOR) was “stimulated the phosphorylation”, the “phosphorylation of PI3K” value (PI3K [11]) was “stimulated the phosphorylation” and the “phosphorylation of GATA1” value (GATA1 [12]) was “stimulated the phosphorylation”. The “phosphorylation of STAT5” value (STAT5 [13]) was “did not stimulate phosphorylation”, the “phosphorylation of ERK/MAPK” value (ERK/MAPK) was “did not stimulate phosphorylation” and the “binding of GATA1 to DNA” value (GATA1 [14]) was “induced the binding of GATA1 to DNA”. For the same compound, the “induction of STAT5 DNA binding” value (STAT5 [15]) was “did not”, the block of apoptosis (Mo7e cells) was “did not block apoptosis” and the “stimulation of BCL2L1 expression” value (BCL2L1 [16]) was “did not”.
